Data published in US20160025717A1, “HYPOSIALYLATION DISORDERS” (THE UNITED STATES OF AMERICA, AS REPRESENTED BY THE …, priority 2013, published 2016).

Tested on: GNE myopathy patients
Assay: Plasma T/ST ratio (T-antigen to monosialylated ST-antigen) by LC-MS/MS in treated GNE myopathy patients
Assay type: in vivo, human
Experimental: The quantification of the T/ST ratio was carried out using the O-glycan quantification methods disclosed in Liu et al., Mol Genet Metab 106, 442-454 (2012). Briefly, O-linked glycans from human serum or plasma total glycoproteins were released by sodium hydroxide with sodium borohydrate and desalted by ion-exchange column and then permethylated before the quantity of T-antigen and monosialyl ST-antigen was measured using LC-MS/MS method. Plasma samples from 40 normal controls were used to establish the normal range for the T/ST ratio at <0.056. A cut-off of 0.06 was used to diagnose hyposialylation of O-linked protein glycosylation in human plasma or serum.
O-glycans were released from plasma glycoproteins and prepared for analysis essentially as described by Carlson (J Biol Chem 243: 616-626, 1968; Liu et al. Mol Genet Metab 2012, 106, 442-454 (2012)), with modifications as described. An internal standard (1250 pmol raffinose in 5 μL) was added to 10 μL of plasma and […] for a final volume of 100 μL. Next, 100 μL of freshly prepared 2M […] in 0.1M sodium hydroxide was added to denature the serum proteins and release the O-glycans; the mixture was incubated at 45° C. for 16 hours to ensure complete reaction. The reaction was neutralized by drop wise addition of 1.6 mL of a 0.25M acetic acid-methanol solution, and the O-glycans were extracted in methanol. Finally, the extracted glycans were desalted through ion-exchange AG 50W-X8 resin (Bio-Rad, Hercules, Calif.) following the manufacture's instruction and lyophilized overnight. The dried samples were dissolved in DMSO for permethylation.
Both N-glycans and O-glycans were permethylated as previously described with minor modification (Guillard et al. Clin Chem 57, 593-602 (2011)). Briefly, four NaOH pellets (approximately 375 mg) were crushed in 10 ml anhydrous DMSO, 0.5 μL water, 0.4 ml of this slurry and 0.1 ml CH3I were added to the dried glycans and the mixture was shaken vigorously for one hour. The mixture was extracted five times sequentially with a mixture of 200 μL water and 600 μL chloroform. […]

SMILES	T/ST ratio (GNE myopathy patient NH00016, after three months without medication (after sialic acid))	T/ST ratio (GNE myopathy patient NH00016, had received sialic acid one month before the test)	T/ST ratio (GNE myopathy patient SIA79 self-administering off-label ManNAc, cut-off 0.06)
CC(=O)N[C@@H]1C(O)C[C@](O)(C(=O)O)OC1[C@H](O)[C@H](O)CO (stereo in doubt) [sialic acid, 5-N-acetylneuraminic acid]	0.7	0.05	
CC(=O)N[C@H]1[C@@H](O)[C@H](O)[C@@H](CO)O[C@H]1O [ManNAc, N-acetyl-D-mannosamine]			normal range
